From patent US8871934B2, “Fluorene compound and pharmaceutical use thereof” (Japan Tobacco Inc., priority 2008, dated 2014)
Where two headings read alike, the source gives them in different places.

Biological target: human PDHK2 (hPDHK2) (Homo sapiens (Human), UniProt Q15119)
Experiment: Inhibitory action of PDHK activity in vitro (kinase reaction, residual PDH activity measured)
Format: biochemical
Protocol: In the case of human PDHK2 (hPDHK2, Genbank Accession No. NM_002611), modified hPDHK2 cDNA wherein FLAG-Tag sequence is added to the N terminal by a polymerase linkage reaction was prepared based on hPDHK2 cDNA clone (pReceiver-M01/PDK2-GeneCopoeia), and cloned into a vector (pET17b-Novagen). The recombinant construct was transformed into Escherichia coli (DH5α-TOYOBO). The recombinant clones were identified, plasmid DNA was isolated and subjected to the DNA sequence analysis. One clone which had the expected nucleic acid sequence was selected for expression work.
During the assay, the hPDHK2 enzyme concentration was set to the minimal concentration at which PDH is inhibited the most.
0.05 U/mL PDH (porcine heart PDH complex, Sigma P7032) and 1.6 μg/mL hPDHK2 were mixed in a buffer (50 mmol/L 3-morpholinopropanesulfonic acid (pH 7.0), 20 mmol/L dipotassium hydrogen phosphate, 60 mmol/L potassium chloride, 2 mmol/L magnesium chloride, 0.4 mmol/L EDTA, and 0.2% Pluronic F-68, 2 mmol/L dithiothreitol), the mixture was incubated at 4° C. overnight to give PDH/hPDHK2 complex. The test compound was diluted with dimethyl sulfoxide (DMSO). PDH/hPDHK2 complex (20 μL), test compound (1.5 μL) and 3.53 μmol/L ATP (diluted with buffer, 8.5 μL) were added to a half area 96 well UV-transparent microplate (Corning 3679), and PDHK reaction was performed at room temperature for 45 min. Instead of the test compound, DMSO (1.5 μL) was added to a control well. DMSO (1.5 μL) was added instead of the test compound to a blank well for the measurement of the maximum rate of PDH reaction, and hPDHK2 was not added. Than, 10 μL of substrates (5 mmol/L sodium pyruvate, 5 mmol/L Coenzyme A, 12 mmol/L NAD, and 5 mmol/L thiamine pyrophosphate, diluted with buffer) was added. The mixture was incubated at room temperature for 90 min, and the residual PDH activity was measured. The absorbance at 340 nm before and after PDH reaction was measured on a microplate reader to detect NADH produced by the PDH reaction. The PDHK inhibitory rate (%) of the test compound was calculated from the formula [{(PDH activity of test compound—PDH activity of control)/PDH activity of blank—PDH activity of control)}×100]. The IC50 value was calculated from the concentrations of the test compound at two points enclosing 50% inhibition of the PDHK activity.

[1] = PDHK inhibitory activity IC50 (μmol/L)
[2] = PDHK inhibitory activity, class symbol of IC50
[3] = read-out: PDHK inhibitory activity IC50

| SMILES | IC50 [1] [nM] | IC50 [2] [nM] | IC50 [3] [nM] |
| --- | --- | --- | --- |
| CNC(=O)Cn1cc(-c2cc(C)cc3c2-c2ccccc2[C@]3(O)C(F)(F)F)cn1 (stereo in doubt) [compound 533] | 15 | < 100 | – |
| CNC(=O)Cn1cc(-c2cc(F)cc3c2-c2ccccc2[C@]3(O)C(F)(F)F)cn1 (stereo in doubt) [compound 534] | 16 | < 100 | – |
| O=C(O)CCCn1cc(-c2cc(F)cc3c2-c2ccccc2[C@]3(O)C(F)(F)F)cn1 (stereo in doubt) [compound 537] | 35 | < 100 | – |
| O=C(O)CCn1cc(-c2cc(F)cc3c2-c2ccccc2[C@]3(O)C(F)(F)F)cn1 (stereo in doubt) [compound 543] | 36 | < 100 | – |
| OC1(Cn2cc(-c3cc(F)cc4c3-c3ccccc3[C@]4(O)C(F)(F)F)cn2)CCCCC1 (stereo in doubt) [compound 544] | 22 | < 100 | – |
| OCC1(n2cc(-c3cc(F)cc4c3-c3ccccc3[C@]4(O)C(F)(F)F)cn2)CCCCC1 (stereo in doubt) [compound 545] | 17 | < 100 | – |
| Cc1cc(-c2cnn(C3(CO)CCCC3)c2)c2c(c1)[C@@](O)(C(F)(F)F)c1ccccc1-2 (stereo in doubt) [compound 546] | 15 | < 100 | – |
| OCC1(n2cc(-c3cc(F)cc4c3-c3ccccc3[C@]4(O)C(F)(F)F)cn2)CCCC1 (stereo in doubt) [compound 548] | 16 | < 100 | – |
| O=C(O)C1(n2cc(-c3cc(F)cc4c3-c3ccccc3[C@]4(O)C(F)(F)F)cn2)CCCC1 (stereo in doubt) [compound 549] | 27 | < 100 | – |
| Cc1cc(-c2cnn(CC(=O)O)c2)c2c(c1)[C@@](O)(C(F)(F)F)c1ccccc1-2 (stereo in doubt) [compound 550] | 69 | < 100 | – |
| O=C(O)Cn1cc(-c2cc(F)cc3c2-c2ccccc2[C@]3(O)C(F)(F)F)cn1 (stereo in doubt) [compound 551] | 109 | 100 to 1000 | – |
| OC1(C(F)(F)F)c2ccccc2-c2ncccc21 (stereo not shown) [compound 1] | – | > 1000 | 2210 |
| Cc1cccc2c1-c1ccccc1C2(O)C(F)(F)F (stereo not shown) [compound 2] | – | > 1000 | 2290 |
| Cc1ccc2c(c1)C(O)(C(F)(F)F)c1ccccc1-2 (stereo not shown) [compound 3] | – | > 1000 | 1570 |
| OC1(C(F)(F)F)c2ccccc2-c2ccc(F)cc21 (stereo not shown) [compound 4] | – | > 1000 | 2290 |
| OC1(C(F)(F)F)c2ccccc2-c2ccc(Cl)cc21 (stereo not shown) [compound 5] | – | > 1000 | 1170 |
| OC1(C(F)(F)F)c2ccccc2-c2c(Cl)cccc21 (stereo not shown) [compound 6] | – | > 1000 | 2290 |
| OC1(C(F)(F)F)c2ccccc2-c2ccc(Br)cc21 (stereo not shown) [compound 7] | – | > 1000 | 1440 |
| OC1(C(F)(F)F)c2ccccc2-c2cccc(Cl)c21 (stereo not shown) [compound 8] | – | > 1000 | 45600 |
| OC1(C(F)(F)F)c2ccccc2-c2cc(Cl)ccc21 (stereo not shown) [compound 9] | – | > 1000 | 20000 |
| Cc1ccc2c(c1)-c1ccccc1C2(O)C(F)(F)F (stereo not shown) [compound 10] | – | > 1000 | 30800 |

| SMILES | IC50 [1] [nM] | IC50 [2] [nM] | IC50 [3] [nM] |
| --- | --- | --- | --- |
| OC1(C(F)(F)F)c2ccccc2-c2c(F)cccc21 (stereo not shown) [compound 11] | – | > 1000 | 6790 |
| OC1(C(F)(F)F)c2ccccc2-c2cc(F)ccc21 (stereo not shown) [compound 12] | – | > 1000 | 5500 |
| OC1(C(F)(F)F)c2ccccc2-c2cccc(F)c21 (stereo not shown) [compound 13] | – | > 1000 | 15900 |
| OC1(C(F)(F)F)c2cc(Cl)ccc2-c2ccc(Cl)cc21 [compound 14] | – | > 1000 | 56600 |
| Cc1cccc2c1-c1ncccc1C2(O)C(F)(F)F (stereo not shown) [compound 15] | – | > 1000 | 16300 |
| Cc1ccc2c(c1)C(O)(C(F)(F)F)c1cccnc1-2 (stereo not shown) [compound 16] | – | > 1000 | 19300 |
| Cc1ccc2c(c1)C(O)(C(F)(F)F)c1cccc(C)c1-2 (stereo not shown) [compound 17] | – | > 1000 | 13900 |
| Cc1cc(C)c2c(c1)C(O)(C(F)(F)F)c1ccccc1-2 (stereo not shown) [compound 18] | – | 100 to 1000 | 457 |
| CC(=O)Nc1cccc2c1-c1ccccc1C2(O)C(F)(F)F (stereo not shown) [compound 19] | – | > 1000 | > 100000 |
| Nc1cccc2c1-c1ccccc1C2(O)C(F)(F)F (stereo not shown) [compound 20] | – | > 1000 | 3500 |
| OC1(C(F)(F)F)c2ccccc2-c2c(Cl)cc(Cl)cc21 (stereo not shown) [compound 21] | – | 100 to 1000 | 302 |
| CC(=O)Nc1ccc2c(c1)C(O)(C(F)(F)F)c1ccccc1-2 (stereo not shown) [compound 22] | – | > 1000 | 16700 |
| COC(=O)c1ccc2c(c1)C(O)(C(F)(F)F)c1ccccc1-2 (stereo not shown) [compound 23] | – | 100 to 1000 | 571 |
| O=C(O)c1ccc2c(c1)C(O)(C(F)(F)F)c1ccccc1-2 (stereo not shown) [compound 24] | – | > 1000 | > 100000 |
| CCc1cccc2c1-c1ccccc1C2(O)C(F)(F)F (stereo not shown) [compound 25] | – | > 1000 | 30900 |
| Nc1ccc2c(c1)-c1ccccc1C2(O)C(F)(F)F (stereo not shown) [compound 26] | – | > 1000 | 17600 |
| COC(=O)c1cccc2c1-c1ccccc1C2(O)C(F)(F)F (stereo not shown) [compound 27] | – | 100 to 1000 | 848 |
| CC(=O)Nc1ccc2c(c1)-c1ccccc1C2(O)C(F)(F)F (stereo not shown) [compound 28] | – | > 1000 | 2820 |
| NC(=O)c1ccc2c(c1)C(O)(C(F)(F)F)c1ccccc1-2 (stereo not shown) [compound 29] | – | > 1000 | 5740 |
| CNC(=O)c1ccc2c(c1)C(O)(C(F)(F)F)c1ccccc1-2 (stereo not shown) [compound 30] | – | > 1000 | 8610 |
| CN(C)C(=O)c1ccc2c(c1)C(O)(C(F)(F)F)c1ccccc1-2 (stereo not shown) [compound 31] | – | > 1000 | 1350 |

| SMILES | IC50 [1] [nM] | IC50 [2] [nM] | IC50 [3] [nM] |
| --- | --- | --- | --- |
| O=C(O)c1cccc2c1-c1ccccc1C2(O)C(F)(F)F (stereo not shown) [compound 32] | – | > 1000 | > 100000 |
| NC(=O)c1cccc2c1-c1ccccc1C2(O)C(F)(F)F (stereo not shown) [compound 33] | – | > 1000 | 1810 |
| CNC(=O)c1cccc2c1-c1ccccc1C2(O)C(F)(F)F (stereo not shown) [compound 34] | – | > 1000 | 33200 |
| CN(C)C(=O)c1cccc2c1-c1ccccc1C2(O)C(F)(F)F (stereo not shown) [compound 35] | – | > 1000 | > 100000 |
| OC1(C(F)(F)F)c2ccccc2-c2ncc(Cl)cc21 (stereo not shown) [compound 36] | – | 100 to 1000 | 626 |
| COc1ccc2c(c1)C(O)(C(F)(F)F)c1ccccc1-2 (stereo not shown) [compound 37] | – | > 1000 | 3960 |
| Oc1ccc2c(c1)C(O)(C(F)(F)F)c1ccccc1-2 (stereo not shown) [compound 38] | – | > 1000 | 12000 |
| CCc1ccc2c(c1)C(O)(C(F)(F)F)c1ccccc1-2 (stereo not shown) [compound 39] | – | > 1000 | 4520 |
| COC(=O)c1ccc2c(c1)-c1ccccc1C2(O)C(F)(F)F (stereo not shown) [compound 40] | – | > 1000 | 2470 |
| O=C(O)c1ccc2c(c1)-c1ccccc1C2(O)C(F)(F)F (stereo not shown) [compound 41] | – | > 1000 | 68600 |
| NC(=O)c1ccc2c(c1)-c1ccccc1C2(O)C(F)(F)F (stereo not shown) [compound 42] | – | > 1000 | 5560 |
| CNC(=O)c1ccc2c(c1)-c1ccccc1C2(O)C(F)(F)F (stereo not shown) [compound 43] | – | > 1000 | 3920 |
| CN(C)C(=O)c1ccc2c(c1)-c1ccccc1C2(O)C(F)(F)F (stereo not shown) [compound 44] | – | > 1000 | > 100000 |
| COC(=O)c1cc(C)c2c(c1)C(O)(C(F)(F)F)c1ccccc1-2 (stereo not shown) [compound 45] | – | 100 to 1000 | 247 |
| COc1cccc2c1-c1ccccc1C2(O)C(F)(F)F (stereo not shown) [compound 46] | – | > 1000 | 6490 |
| COc1ccc2c(c1)-c1ccccc1C2(O)C(F)(F)F (stereo not shown) [compound 47] | – | > 1000 | 4910 |
| CCOC(=O)c1cccc2c1-c1ccccc1C2(O)C(F)(F)F (stereo not shown) [compound 48] | – | 100 to 1000 | 639 |
| N#Cc1cccc2c1-c1ccccc1C2(O)C(F)(F)F (stereo not shown) [compound 49] | – | > 1000 | 1790 |
| COC(=O)c1cc(C(=O)OC)c2c(c1)C(O)(C(F)(F)F)c1ccccc1-2 (stereo not shown) [compound 50] | – | 100 to 1000 | 100 |
| CCN(C)C(=O)c1ccc2c(c1)C(O)(C(F)(F)F)c1ccccc1-2 (stereo not shown) [compound 51] | – | > 1000 | 2590 |
